Reference: publication PMC12530851, “Design, synthesis, and apoptotic antiproliferative activity of novel dihydropyrimidine-5-carbonitrile/1,2,4-oxadiazole hybrids as dual EGFR/VEGFR-2 inhibitors endowed with antioxidant activity” (RSC Advances, 2025)
Read-outs that look alike come from different tables or passages of the source.

Assays:
[1] = Cell viability assay (MTT) on normal MCF-10A cells; format: cell-based; conditions: human, MCF-10A mammary gland epithelial cells (normal cell line), MCF-10A normal cells, four-day incubation
Description: The impact of novel compounds 10a–l on the viability of a normal human cell line, specifically human mammary gland epithelial cells (MCF-10A), was assessed to ascertain the safety of the newly synthesized compounds. The MTT test was employed to assess the cell viability of the novel compounds after a four-day incubation with MCF-10A cells.[29,37] Refer to Appendix A for more experimental details.
The effect of new compounds 10a–l on the viability of a normal human cell line, namely human mammary gland epithelial cells (MCF-10A), was evaluated to determine the safety of the newly synthesized compounds.
4.2. Biological evaluation
4.2.1 Cell Viability assay (MTT assay)
MTT assay was performed to investigate the effect of the synthesized compounds on mammary epithelial cells (MCF-10A). The cells were propagated in medium consisting of Ham's F-12 medium/ Dulbecco's modified Eagle's medium (DMEM) (1:1) supplemented with 10% foetal calf serum, 2 mM glutamine, insulin (10 μg/mL), hydrocortisone (500 ng/mL) and epidermal growth factor (20 ng/mL). Trypsin ethylenediamine tetra acetic acid (EDTA) was used to passage the cells after every 2-3 days. 96-well flat-bottomed cell culture plates were used to seed the cells at a density of 10^4 cells mL-1. The medium was aspirated from all the wells of culture plates after 24 h followed by the addition of synthesized compounds (in 200 μL medium to yield a final concentration of 0.1% (v/v) dimethyl sulfoxide) into individual wells of the plates. Four wells were designated to a single compound. The plates were allowed to incubate at 37°C for 96 h. Afterwards, the medium was aspirated and 3-[4,5-dimethylthiazol-2-yl]-2,5-diphenyltetrazolium bromide (MTT) (0.4 mg/mL) in medium was added to each well and subsequently incubated for 3 h. The medium was aspirated and 150 μL dimethyl sulfoxide (DMSO) was added to each well. The plates were vortexed followed by the measurement of absorbance at 540 nm on a microplate reader. […]

[2] = tested on: A-549 (lung cancer); test: Antiproliferative assay, A-549; format: cell-based; conditions: Homo sapiens, A549; A-549 lung cancer cells; read-out: Antiproliferative activity IC50 ± SEM, A-549
From the text: (§1) The dose–response experiments established the IC50 values for the new compounds. The given findings were obtained from at least two distinct studies, each comprising three repeats per concentration. Appendix A (SI File) provides experimental details.[38,39]
(§2) The MTT assay[43] was utilized to assess the antiproliferative effects of compounds 10a–l on four human cancer cell lines: HT-29 (colon cancer), Panc-1 (pancreatic cancer), A-549 (lung cancer), and MCF-7 (breast cancer). […]
(§3) 4.2.2. Assay for antiproliferative effect
(§4) To explore the antiproliferative potential of compounds propidium iodide fluorescence assay was performed using different cell lines such as Panc-1 (pancreas cancer cell line), MCF-7 (breast cancer cell line), HT-29 (colon cancer cell line) and A-549 (epithelial cancer cell line), respectively. To calculate the total nuclear DNA, a fluorescent dye (propidium iodide, PI) is used which can attach to the DNA, thus offering a quick and precise technique. PI cannot pass through the cell membrane and its signal intensity can be considered as directly proportional to quantity of cellular DNA. Cells whose cell membranes are damaged or have changed permeability are counted as dead ones. The assay was performed by seeding the cells of different cell lines at a density of 3000-7500 cells/well (in 200μl medium) in culture plates followed by incubation for 24h at 37 °C in humidified 5%CO2/95% air atmospheric conditions. The medium was removed; the compounds were added to the plates at 10 μM concentrations (in 0.1% DMSO) in triplicates, followed by incubation for 48h. DMSO (0.1%) was used as control. After incubation, medium was removed followed by the addition of PI (25 μl, 50μg/mL in water/medium) to each well of the plates. At - 80 °C, the plates were allowed to freeze for 24 h, followed by thawing at 25 °C. A fluorometer (Polar-Star BMG Tech) was used to record the readings at excitation and emission wavelengths of 530 and 620 nm for each well. The percentage cytotoxicity of compounds was calculated using […]
(§5) Where ATC= Absorbance of treated cells and AC= Absorbance of control. Erlotinib was used as positive control in the assay. […]

[3] = tested on: MCF-7 (breast cancer); test: Antiproliferative assay, MCF-7; format: cell-based, human; conditions: Homo sapiens, MCF7; MCF-7 breast cancer cells; read-out: Antiproliferative activity IC50 ± SEM, MCF-7
From the text: as §1, §2, §3, §4, §5

[4] = tested on: Panc-1 (pancreatic cancer); test: Antiproliferative assay, Panc-1; format: cell-based; conditions: Homo sapiens; Panc-1 pancreatic cancer cells; read-out: Antiproliferative activity IC50 ± SEM, Panc-1
From the text: as §1, §2, §3, §4, §5

[5] = tested on: HT-29 (colon cancer); test: Antiproliferative assay, HT-29; format: cell-based; conditions: Homo sapiens; HT-29 colon cancer cells; read-out: Antiproliferative activity IC50 ± SEM, HT-29
From the text: as §1, §2, §3, §4, §5

[6] = tested on: four human cancer cell lines (A-549, MCF-7, Panc-1, HT-29); test: Antiproliferative assay, average over four cancer cell lines; format: cell-based; conditions: for GI50: average IC50 across A-549, MCF-7, Panc-1, HT-29
Description: The given findings were obtained from at least two distinct studies, each comprising three repeats per concentration. Appendix A (SI File) provides experimental details.[38,39] […]
as §3
To explore the antiproliferative potential of compounds propidium iodide fluorescence assay was performed using different cell lines such as Panc-1 (pancreas cancer cell line), MCF-7 (breast […]
respectively. To calculate the total nuclear DNA, a fluorescent dye (propidium iodide, PI) is used which can attach to the DNA, thus offering a quick and precise technique. PI cannot pass through the cell membrane and its signal intensity can be considered as directly proportional to quantity of cellular DNA. Cells whose cell membranes are damaged or have changed permeability are counted as dead ones. The assay was performed by seeding the cells of different cell lines at a density of 3000-7500 cells/well (in 200μl medium) in culture plates followed by incubation for 24h at 37 °C […]
The medium was removed; the compounds were added to the plates at 10 μM concentrations (in 0.1% DMSO) in triplicates, followed by incubation for 48h. DMSO (0.1%) was used as control. After incubation, medium was removed followed by the addition of PI (25 μl, 50μg/mL in water/medium) to each well of the plates. At - 80 °C, the plates were allowed to freeze for 24 h, followed by thawing at 25 °C. A fluorometer (Polar-Star BMG Tech) was used to record the readings at excitation and emission wavelengths of 530 and 620 nm for each well. The percentage cytotoxicity of compounds was calculated using […]
Where ATC= Absorbance of treated cells and AC= Absorbance of control. […]
positive control in the assay. […]

[7] = target: T1, VEGFR-2 (Homo sapiens, UniProt P35968); test: VEGFR-2 inhibitory assay
T1 sequence (P35968 20-1356): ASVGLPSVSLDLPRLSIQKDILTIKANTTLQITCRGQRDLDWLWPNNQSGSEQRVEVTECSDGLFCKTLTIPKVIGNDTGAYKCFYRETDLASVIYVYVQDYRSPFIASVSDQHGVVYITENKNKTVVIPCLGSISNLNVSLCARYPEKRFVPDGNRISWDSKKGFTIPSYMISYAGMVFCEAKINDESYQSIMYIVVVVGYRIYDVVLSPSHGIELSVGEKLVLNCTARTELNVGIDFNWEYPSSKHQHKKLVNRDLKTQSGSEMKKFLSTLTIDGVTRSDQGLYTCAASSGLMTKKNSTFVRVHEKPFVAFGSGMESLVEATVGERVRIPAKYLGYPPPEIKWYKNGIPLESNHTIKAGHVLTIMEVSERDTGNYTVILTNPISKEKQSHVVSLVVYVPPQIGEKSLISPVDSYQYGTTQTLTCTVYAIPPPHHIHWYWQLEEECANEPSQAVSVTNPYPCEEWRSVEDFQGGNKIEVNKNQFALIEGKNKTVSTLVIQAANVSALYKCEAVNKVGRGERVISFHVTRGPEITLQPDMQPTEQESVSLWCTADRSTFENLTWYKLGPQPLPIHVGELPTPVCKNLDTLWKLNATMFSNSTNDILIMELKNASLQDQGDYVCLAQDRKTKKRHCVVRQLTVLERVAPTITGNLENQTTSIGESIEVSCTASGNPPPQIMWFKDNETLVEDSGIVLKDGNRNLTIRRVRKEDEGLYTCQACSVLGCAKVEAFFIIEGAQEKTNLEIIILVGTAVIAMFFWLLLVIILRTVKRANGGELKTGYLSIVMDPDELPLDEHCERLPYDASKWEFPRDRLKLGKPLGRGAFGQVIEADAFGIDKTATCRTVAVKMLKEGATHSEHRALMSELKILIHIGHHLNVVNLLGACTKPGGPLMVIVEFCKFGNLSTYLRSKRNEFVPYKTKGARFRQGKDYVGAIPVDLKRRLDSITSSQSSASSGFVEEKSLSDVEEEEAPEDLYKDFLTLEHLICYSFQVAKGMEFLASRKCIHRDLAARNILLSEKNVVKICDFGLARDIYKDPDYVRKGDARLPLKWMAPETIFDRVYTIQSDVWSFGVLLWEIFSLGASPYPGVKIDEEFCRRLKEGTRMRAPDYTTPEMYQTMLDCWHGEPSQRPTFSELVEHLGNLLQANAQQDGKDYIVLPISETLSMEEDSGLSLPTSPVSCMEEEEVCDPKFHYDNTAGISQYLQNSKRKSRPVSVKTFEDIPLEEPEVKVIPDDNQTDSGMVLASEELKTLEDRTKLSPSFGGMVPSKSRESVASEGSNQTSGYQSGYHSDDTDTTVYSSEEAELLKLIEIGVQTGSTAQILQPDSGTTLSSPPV
Description: The majority of signals detected by antiphosphotyrosine antibody were from EGFR because the enzyme preparation contained low impurities.
Prepare all the solutions using autoclaved, deionized water and analytical grade reagents. Prepare
and store all the reagents at room temperature (unless indicated otherwise). EDTA solution (0.5
M, pH 8.0): add 95 mL ultra-pure water to 14.612 g EDTA, adjust the pH to 8.0 using NaOH
solution, add 5 mL ultra-pure water; 1×Kinase Assay Buffer: add 25 mL HEPES solution (1 M),
water, adjust pH to 7.5 and constant volume to 500 mL using ultrapure water; 4×Stop solution (40
mM): Mix 0.8 mL of the foregoing EDTA solution, 1 mL 10×Detection Buffer and 8.2 mL ultra-
pure water; 1×Detection Buffer: Mix 1 mL 10×Detection Buffer with 9 mL water; 4×VEGFR
μM) was added to 624 μL 1×Kinase Assay Buffer and mixed; 4×ULight™-labeled JAK1
concentration 5 μM) was added to 576 μL 1×Kinase Assay Buffer and mixed; 4×ATP Solution
2×substrate/ATP Mix: 560 μL foregoing 4×ULight™-labeled JAK1 and 560 μL 4×ATP solution
and mixed (prepared before use). The assays used an ULight-labeled peptide substrate and a
Europium-W1024-labeled antiphosphotyrosine antibody. The VEGFR-2 was purchased from
Carna Biosciences, Inc. (New York, USA). The 384-well plates were obtained from PerkinElmer.
Compounds were dissolved in DMSO and diluted to 11 concentrations at a tripling rate from 2.500
5 μL 2×VEGFR-2 kinase solution (0.5 nM)
was added to 384-well plates homogeneous mixing and pre-reaction at room temperature for 30
min. Next, 2.5 μL 4×Ultra ULightTM-JAK-1(Tyr1023) Peptide (200 nM)/ATP (40 μM) was
added to the corresponding wells of a 384-well plate. Negative control: 2.5 μL/well 4×substrate/ATP mixture and 7.5 μL 1×kinase assay buffer in 384-well plate well. Positive control:
μL/well 2×VEGFR-2 kinase solution was added to the 384-well plate, The final concentration of DMSO in the mixing system was 4%. After incubation at room temperature and dark for 60 min, 5 μL 4×stop solution was added to corresponding wells to react for 5 min and then 5 μL 4×detection mix was added to the corresponding wells of a 384-well plate. The mixture was centrifugally mixed and stayed for 60 min at room temperature for color development. The plate
was read using an Envision plate reader. The inhibition rate (%) = (positive well reading-
compound well reading)/(positive well reading-negative well reading)×100. The corresponding IC50 values were calculated using GraphPad Prism 5.0.

[8] = target: T2, EGFR (Homo sapiens, UniProt P00533); test: EGFR inhibitory assay (EGFR-TK test)
T2 sequence (P00533 669-1210): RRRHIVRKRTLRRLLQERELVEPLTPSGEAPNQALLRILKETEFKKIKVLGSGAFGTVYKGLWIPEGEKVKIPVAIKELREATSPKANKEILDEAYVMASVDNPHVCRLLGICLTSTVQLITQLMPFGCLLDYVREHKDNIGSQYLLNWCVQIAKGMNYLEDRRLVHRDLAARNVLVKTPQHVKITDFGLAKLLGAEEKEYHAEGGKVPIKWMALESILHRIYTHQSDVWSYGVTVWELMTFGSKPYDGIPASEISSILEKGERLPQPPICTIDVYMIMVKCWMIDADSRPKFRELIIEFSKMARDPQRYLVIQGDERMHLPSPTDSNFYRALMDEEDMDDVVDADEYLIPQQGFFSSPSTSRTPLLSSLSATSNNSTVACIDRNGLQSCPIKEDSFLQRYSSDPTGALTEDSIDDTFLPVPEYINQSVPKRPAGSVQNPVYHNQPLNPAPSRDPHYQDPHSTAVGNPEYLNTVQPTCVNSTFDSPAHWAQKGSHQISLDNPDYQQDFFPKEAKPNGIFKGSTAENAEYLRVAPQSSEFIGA
Description: Baculoviral expression vectors including pBlueBacHis2B and pFASTBacHTc were used
5ʹ upstream to the EGFR sequence comprised a sequence that encoded (His)6. Sf-9 cells were infected for 72h for protein expression. The pellets of Sf-9 cells were solubilized in a buffer containing sodium vanadate (100 μM), aprotinin (10 μg/mL), triton (1%), HEPES
buffer(50mM), ammonium molybdate (10 μM), benzamidine HCl (16 μg/mL), NaCl (10 mM),leupeptin (10 μg/mL) and pepstatin (10 μg/mL) at 0°C for 20 min at pH 7.4, followed by centrifugation for 20 min. To eliminate the nonspecifically bound material, a Ni-NTA super flow packed column was used to pass through and wash the crude extract supernatant first with 10mM and then with 100 mM imidazole. Histidine-linked proteins were first eluted with 250 and then with 500 mM imidazole subsequent to dialysis against NaCl (50 mM), HEPES (20 mM), glycerol (10%) and 1 μg/mL each of aprotinin, leupeptin and pepstatin for 120 min. The purification was performed either at 4 °C or on ice. To record autophosphorylation level, EGFR kinase assay was carried out on the basis of DELFIA/Time-Resolved Fluorometry. The compounds were first
dissolved in DMSO absolute, subsequent to dilution to appropriate concentration using HEPES
(25 mM) at pH 7.4. Each compound (10 μL) was incubated with recombinant enzyme (10 μL, 5
ng for EGFR, 1:80 dilution in 100 mM HEPES) for 10 min at 25 °C, subsequent to the addition of
5X buffer (10 μL, containing 2 mM MnCl2, 100 μM Na3VO4, 20 mM HEPES and 1 mM DTT)
and ATP-MgCl2 (20 μL, containing 0.1 mM ATP and 50 mM MgCl2) and incubation for 1h. The
negative and positive controls were included in each plate by the incubation of enzyme either with
or without ATP-MgCl2. The liquid was removed after incubation and the plates were washed
thrice using a wash buffer. The Europium-tagged antiphosphotyrosine antibody (75 μL, 400 ng)
was added to each well followed by incubation of 1h and then washing of the plates using buffer.
The enhancement solution was added to each well and the signal was recorded at excitation and
The autophosphorylation percentage inhibition by compounds was calculated using the following equation:
calculated. The majority of signals detected by antiphosphotyrosine antibody were from EGFR because the enzyme preparation contained low impurities.

[9] = target: T1, VEGFR-2; set-up: purchased Carna Biosciences, Inc; conditions: cited from earlier work
[10] = target: T2, EGFR; set-up: 645–1186; His6 (N); made in house; host or cells: Sf-9 insect cells (baculovirus; pBlueBacHis2B and pFASTBacHTc vectors); conditions: cited from earlier work
[11] = tested on: BRAF^V600E; set-up: method as in PMID 39281035; conditions: cited from earlier work
[12] = tested on: mutant EGFR (EGFR^T790M); set-up: method as in PMID 39281035; conditions: cited from earlier work

| SMILES | viability at 96 h, 50 µM [1] [%] | IC50 [2] [nM] | IC50 [3] [nM] | IC50 [4] [nM] | IC50 [5] [nM] | GI50 ([6]; Homo sapiens) [nM] | GI50 [6] [nM] | IC50 [7] [nM] | IC50 [8] [nM] | other results |
| --- | --- | --- | --- | --- | --- | --- | --- | --- | --- | --- |
| N#Cc1c(-c2ccc(Cl)cc2)nc(SCc2nc(-c3ccc(Cl)cc3)no2)[nH]c1=O [Compound 10h, 2-(((3-(4-Chlorophenyl)-1,2,4-oxadiazol-5-yl)methyl)thio)-4-(4-chlorophenyl)-6-oxo-1,6-dihydropyrimidine-5-carbonitrile] | 92 | 35 ± 2 | 31 ± 2 | 35 ± 2 | 36 ± 2 | 31 | 34 | 43 ± 3 | 79 ± 5 | Reduction in antiproliferative potency relative to 10k (GI50) ([6]; less potent than 10k): 1.6 fold |
| COc1ccc(-c2noc(CSc3nc(-c4ccc(Cl)cc4)c(C#N)c(=O)[nH]3)n2)cc1 [Compound 10i, 2-(((3-(4-Methoxyphenyl)-1,2,4-oxadiazol-5-yl)methyl)thio)-4-(4-chlorophenyl)-6-oxo-1,6-dihydropyrimidine-5-carbonitrile] | 91 | 33 ± 2 | 28 ± 1 | 30 ± 1 | 34 ± 1 | 34 | 31 | 39 ± 2 | 71 ± 5 | – |
| COc1cc(-c2noc(Cn3cc(-c4ccccc4)nn3)n2)cc(OC)c1OC [Compound III] | – | – | – | – | – | – | – | – | – | IC50 ([9]; read-out: VEGFR-2 IC50): 2.4 nM; IC50 [10]: 76 nM |
| CC(=O)c1ccc(NC(=O)CSC2=NC(=O)C(C#N)C(c3ccccc3)N2)cc1 (stereo not shown) [Compound II] | – | – | – | – | – | – | – | – | – | IC50 ([9]; read-out: VEGFR-2 kinase IC50): 199 nM |
| O=c1c2ccccc2nc(SCc2nc(-c3ccc(Cl)cc3)no2)n1-c1ccccc1 [Compound IV] | – | – | – | – | – | – | – | – | – | IC50 [11]: 48 nM; Efficacy against mutant EGFR (EGFR^T790M) [12]: considerable efficacy |
| COc1ccc(-c2csc(NC(=O)CSc3nc(-c4ccc(OC)cc4)c(C#N)c(=O)[nH]3)n2)cc1 [Compound I] | – | – | – | – | – | – | – | – | – | IC50 ([10]; in vitro EGFR inhibitory assay): 190 ± 200 nM |
